These results are taken from publication PMC10100225, “In Vivo Biocatalytic Cascades Featuring an Artificial‐Enzyme‐Catalysed New‐to‐Nature Reaction” (Angewandte Chemie (International Ed. in English), 2022).

Holding throughout (assay type): cell-based
Assay [1] addresses carboxylic acid reductase (CAR) (Nocardia iowensis, UniProt Q6RKB1). Description: whole-cell aldehyde formation. To be noted: E. coli RARE cells co-expressing SFP; MMV medium, 5 mM, 24 °C.
The target in assay [2] is T1, 5-Hydroxymethylfurfural (HMF) oxidase (HMFO) (Methylovorus sp. MP688, UniProt E4QP00).
T1 construct: gene MPQ_0130; flavoprotein, pBAD vector, expressed in E. coli K-12 MG1655 (RARE); no mutations told
T1 sequence (E4QP00 1-531): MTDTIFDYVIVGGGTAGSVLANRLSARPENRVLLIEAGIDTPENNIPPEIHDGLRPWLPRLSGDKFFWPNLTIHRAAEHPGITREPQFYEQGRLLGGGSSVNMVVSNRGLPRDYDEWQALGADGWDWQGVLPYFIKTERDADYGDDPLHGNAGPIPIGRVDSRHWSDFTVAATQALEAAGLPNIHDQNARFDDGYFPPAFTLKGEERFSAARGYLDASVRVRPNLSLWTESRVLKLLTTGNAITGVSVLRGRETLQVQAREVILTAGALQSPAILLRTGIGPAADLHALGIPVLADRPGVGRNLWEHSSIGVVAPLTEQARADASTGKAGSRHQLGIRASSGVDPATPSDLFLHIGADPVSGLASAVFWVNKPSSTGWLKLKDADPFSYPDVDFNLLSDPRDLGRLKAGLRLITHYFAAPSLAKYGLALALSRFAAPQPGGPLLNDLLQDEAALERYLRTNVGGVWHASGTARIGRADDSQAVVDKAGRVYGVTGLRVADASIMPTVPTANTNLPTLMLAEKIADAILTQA
Briefly: whole-cell alcohol oxidation. Particulars: O2 as oxidant; E. coli RARE cells, 5 mM, 2 h.

Assay [3] concerns the target T2, feruloyl CoA synthase (FCS, Atfcs) (Amycolatopsis thermoflava, UniProt Z9FW54HPU9).
T2 construct: pETDuet-1, co-expressed with enoyl-CoA hydratase/aldolase Atech of the same strain in E. coli K-12 MG1655 (RARE)
Briefly: whole-cell aldehyde formation. Particulars: E. coli RARE cells co-expressing ECH hydratase/aldolase, which completes the conversion to aldehyde; MMV medium, 5 mM, 24 °C.

Sequence of carboxylic acid reductase (CAR) (Q6RKB1 2-1174): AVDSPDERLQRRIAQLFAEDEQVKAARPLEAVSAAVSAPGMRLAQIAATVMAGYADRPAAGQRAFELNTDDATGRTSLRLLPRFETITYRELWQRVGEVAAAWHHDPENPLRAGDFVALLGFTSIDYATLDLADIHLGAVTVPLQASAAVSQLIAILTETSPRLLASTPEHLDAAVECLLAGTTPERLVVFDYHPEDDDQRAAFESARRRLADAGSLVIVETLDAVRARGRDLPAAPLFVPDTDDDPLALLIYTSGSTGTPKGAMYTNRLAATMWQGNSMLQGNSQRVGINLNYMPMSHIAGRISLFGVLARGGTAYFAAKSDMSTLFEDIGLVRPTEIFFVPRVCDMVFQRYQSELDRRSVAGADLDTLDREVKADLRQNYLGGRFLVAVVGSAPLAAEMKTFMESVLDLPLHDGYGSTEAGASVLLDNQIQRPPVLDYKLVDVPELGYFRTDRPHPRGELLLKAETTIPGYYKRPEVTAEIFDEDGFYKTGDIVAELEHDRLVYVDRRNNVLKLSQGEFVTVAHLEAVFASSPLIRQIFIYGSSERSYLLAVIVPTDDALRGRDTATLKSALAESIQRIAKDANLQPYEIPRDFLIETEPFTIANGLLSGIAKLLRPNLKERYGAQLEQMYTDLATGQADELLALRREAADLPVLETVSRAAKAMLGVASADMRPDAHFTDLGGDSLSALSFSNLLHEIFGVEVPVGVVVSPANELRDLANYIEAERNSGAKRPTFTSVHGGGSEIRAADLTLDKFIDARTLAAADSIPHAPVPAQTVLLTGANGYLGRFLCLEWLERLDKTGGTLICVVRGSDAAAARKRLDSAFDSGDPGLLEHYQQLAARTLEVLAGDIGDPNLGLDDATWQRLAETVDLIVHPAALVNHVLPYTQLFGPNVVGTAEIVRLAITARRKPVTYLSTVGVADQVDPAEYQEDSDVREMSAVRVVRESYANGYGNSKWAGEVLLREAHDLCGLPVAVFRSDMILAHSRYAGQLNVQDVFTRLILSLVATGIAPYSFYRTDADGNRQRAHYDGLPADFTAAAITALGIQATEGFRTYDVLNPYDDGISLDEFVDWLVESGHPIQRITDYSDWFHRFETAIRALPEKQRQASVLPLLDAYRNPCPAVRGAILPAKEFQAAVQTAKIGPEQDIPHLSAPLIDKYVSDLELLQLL

As to `O=C(O)c1ccc(O)cc1` [4 a, p-hydroxybenzoic acid], the whole-cell aldehyde formation result in assay [1] was “CAR‐SFP/E. coli RARE, from p‐hydroxybenzoic acid, produced a good yield of p‐hydroxybenzaldehyde”.

In the case of `O=C(O)c1ccccc1` [4 b, benzoic acid], the whole-cell aldehyde formation result in assay [1] is listed as “reduction of benzoic acid to benzaldehyde catalysed by CAR‐SFP/E. coli RARE”.

`OCc1ccc(O)cc1` [6 a, p-hydroxybenzyl alcohol]: the whole-cell alcohol oxidation result in assay [2] is “whole cell HMFO catalysed oxidation of benzyl alcohol and p‐hydroxybenzyl alcohol”.

With `OCc1ccccc1` [6 b, benzyl alcohol], the whole-cell alcohol oxidation entry in assay [2] was “whole cell HMFO catalysed oxidation of benzyl alcohol and p‐hydroxybenzyl alcohol”.

With `O=C(O)/C=C/c1ccc(O)cc1` [compound 5, p-coumaric acid], the whole-cell aldehyde formation result in assay [3] is given as “FCS‐ECH/E. coli RARE, starting from p‐coumaric acid”.
